{
  "source": "paper PMC10584882",
  "about": "(Communications Biology, 2023)",
  "key": {"SARS-CoV-2-GFP": {"system": "SARS-CoV-2-GFP", "assay": "microbe, parasite or virus in culture", "type": "cell-based", "conditions": "mean with standard error, read-out: VERO E6 EC50"}, "LC-HK2 cells": {"system": "LC-HK2 cells", "assay": "Cell viability assay (CellTiter-Glo), LC-HK2", "type": "cell-based, human", "conditions": "for Cell viability (% control): LC-HK2, 72 h, replicates", "procedure": "VERO-CCL81 was seeded in 96-well plates at a density of 1.5×10^4 cells/well, while LC-HK2 was seeded at a density of 3×10^4 cells/well, following 24 h incubation at 37 °C and 5% CO2 atmosphere. The cell culture media was replaced by serial dilutions of the compounds and the cell viability was determined 72 h post-treatment via CellTiter-Glo® Luminescent Cell Viability Assay (Promega), following the manufacturer’s instructions. Luminescent signal was recorded using a CLARIOstar multi-mode microplate reader (BMG Labtech, Germany). Graphs were generated using GraphPad Prism software version 8.0 (La Jolla, CA, USA, www.graphpad.com). Samples deemed to be technical failures and extreme outlier were removed."}, "SARS-CoV-2 [1]": {"system": "SARS-CoV-2", "assay": "Cytopathic effect inhibition assay in LC-HK2 cells", "type": "cell-based", "conditions": "for CPE inhibition (%): LC-HK2"}, "CatL": {"molecular_target": "T1, CatL (Homo sapiens, UniProt P07711)", "T1 construct": "made in house", "T1 sequence (P07711 114-333)": "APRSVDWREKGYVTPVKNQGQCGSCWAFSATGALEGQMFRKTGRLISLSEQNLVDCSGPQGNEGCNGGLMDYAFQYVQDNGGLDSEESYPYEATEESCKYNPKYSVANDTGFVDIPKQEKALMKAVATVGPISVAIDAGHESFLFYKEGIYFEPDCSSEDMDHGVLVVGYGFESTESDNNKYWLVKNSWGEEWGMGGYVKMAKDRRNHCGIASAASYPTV", "assay": "Cathepsin inhibition test, CatL", "type": "biochemical", "conditions": "for Residual activity (Vi/V0): Fig. S3 panel b, single replicates"}, "SARS-CoV-2 [2]": {"system": "SARS-CoV-2", "assay": "Viral loading determination via RT-qPCR in VERO-CCL81 cells", "type": "cell-based", "conditions": "for Viral titer (% control): VERO CCL81, RT-qPCR, experiments 1 and 2"}, "SARS-CoV-2 M^pro": {"molecular_target": "T2, SARS-CoV-2 M^pro (Severe acute respiratory syndrome coronavirus 2, UniProt P0DTD1)", "T2 construct": "Initially reported to target the viral main protease (M^pro); made in house", "type": "biochemical", "conditions": "mean with 95% confidence interval; 100 nM M^pro, pH 7.3, 37 °C", "description": "In the enzyme inhibition assays, the initial velocities were calculated from the initial linear portions of their curves, assuming steady-state kinetics. IC50 and Ki values were calculated using GraphPad Prism software. Z-FR-AMC (CatK and CatV), Z-RR-AMC (CatB and CatL), and QS1 or Acetyl-VKLQ-AMC (M^pro) substrates were used to monitor reactions. These measurements were done in four independent duplicates or triplicates, respectively."}},
  "note": "Where “and” joins values, the source holds several entries; their conditions need not be identical. Equal entries are not always repeated.",
  "data": [
    {"compound": "CCCC[C@H](NC(=O)[C@H](CC(C)C)NC(=O)OCc1ccccc1)C(O)S(=O)(=O)[O-].[Na+]", "note": "(stereo partly drawn) [S-Calpeptin]", "values": [
      {"measurement": "EC50", "setting": "SARS-CoV-2-GFP", "value": "120 ± 54", "unit": "nM"},
      {"measurement": "cytotoxicity (in words)", "setting": "LC-HK2 cells; LC-HK2, 72 h", "value": "no cytotoxicity up to low micromolar concentrations"},
      {"measurement": "Cell viability (% control)", "setting": "LC-HK2 cells; 0.0006 μM", "value": "101.91 % control and 100.87 % control and 100.74 % control"},
      {"measurement": "Cell viability (% control)", "setting": "LC-HK2 cells; 0.0012 μM", "value": "103 % control and 98.5 % control and 94.37 % control"},
      {"measurement": "Cell viability (% control)", "setting": "LC-HK2 cells; 0.0024 μM", "value": "103.56 % control and 100.06 % control and 97.94 % control"},
      {"measurement": "Cell viability (% control)", "setting": "LC-HK2 cells; 0.0049 μM", "value": "100.56 % control and 101.52 % control and 96.13 % control"},
      {"measurement": "Cell viability (% control)", "setting": "LC-HK2 cells; 0.0098 μM", "value": "103.39 % control and 98.29 % control and 93.66 % control"},
      {"measurement": "Cell viability (% control)", "setting": "LC-HK2 cells; 0.0195 μM", "value": "101 % control and 102.2 % control and 97.31 % control"},
      {"measurement": "Cell viability (% control)", "setting": "LC-HK2 cells; 0.0391 μM", "value": "101.11 % control and 100.82 % control and 93.61 % control"},
      {"measurement": "Cell viability (% control)", "setting": "LC-HK2 cells; 0.0781 μM", "value": "95.36 % control and 95.43 % control and 89.73 % control and 94.91 % control and 94.76 % control and 87.15 % control"},
      {"measurement": "Cell viability (% control)", "setting": "LC-HK2 cells; 0.1563 μM", "value": "94.91 % control and 93.6 % control and 89 % control and 98.33 % control and 105.61 % control and 98.34 % control"},
      {"measurement": "Cell viability (% control)", "setting": "LC-HK2 cells; 0.3125 μM", "value": "97.71 % control and 92.81 % control and 89.53 % control and 99.96 % control and 101.2 % control"},
      {"measurement": "Cell viability (% control)", "setting": "LC-HK2 cells; 0.625 μM", "value": "99.27 % control and 95.19 % control and 89.18 % control and 98.53 % control and 102.88 % control and 100.16 % control"},
      {"measurement": "Cell viability (% control)", "setting": "LC-HK2 cells; 1.25 μM", "value": "94.67 % control and 92.11 % control and 87.48 % control and 95.09 % control and 95.4 % control and 94.79 % control"},
      {"measurement": "Cell viability (% control)", "setting": "LC-HK2 cells; 2.5 μM", "value": "94.03 % control and 92.7 % control and 88.37 % control and 89.79 % control and 94.67 % control and 93.9 % control"},
      {"measurement": "Cell viability (% control)", "setting": "LC-HK2 cells; 5 μM", "value": "91.36 % control and 87.95 % control and 86.97 % control and 86.06 % control and 93.58 % control and 92 % control"},
      {"measurement": "Cell viability (% control)", "setting": "LC-HK2 cells; 10 μM", "value": "83.09 % control and 79.77 % control and 75 % control and 90.37 % control and 93.49 % control and 89.11 % control"},
      {"measurement": "Cell viability (% control)", "setting": "LC-HK2 cells; 100 μM", "value": "73.52 % control and 81.33 % control and 73.97 % control"},
      {"measurement": "EC50", "setting": "SARS-CoV-2 [1]; LC-HK2, CellTiter-Glo, 72 h post-infection, read-out: CPE inhibition EC50", "value": 70, "unit": "nM"},
      {"measurement": "CPE inhibition (%)", "setting": "SARS-CoV-2 [1]; 0.000000000001 μM (first of two lines so printed, r18)", "value": 0, "unit": "%"},
      {"measurement": "CPE inhibition (%)", "setting": "SARS-CoV-2 [1]; 0.000000000001 μM (second line, r19)", "value": 0, "unit": "%"},
      {"measurement": "CPE inhibition (%)", "setting": "SARS-CoV-2 [1]; 0.00000000001 μM", "value": 0, "unit": "%"},
      {"measurement": "CPE inhibition (%)", "setting": "SARS-CoV-2 [1]; 0.0000000001 μM", "value": 0, "unit": "%"},
      {"measurement": "CPE inhibition (%)", "setting": "SARS-CoV-2 [1]; 0.000000001 μM", "value": 0, "unit": "%"},
      {"measurement": "CPE inhibition (%)", "setting": "SARS-CoV-2 [1]; 0.00000001 μM, listed as S-Calpepin, 10 fM", "value": "4.03% and 3.04%"},
      {"measurement": "CPE inhibition (%)", "setting": "SARS-CoV-2 [1]; 0.0000001 μM, listed as S-Calpepin, 100 fM", "value": "0% and 1.04%"},
      {"measurement": "CPE inhibition (%)", "setting": "SARS-CoV-2 [1]; 0.000001 μM, listed as S-Calpepin, 1 pM", "value": "0% and 4.71%"},
      {"measurement": "CPE inhibition (%)", "setting": "SARS-CoV-2 [1]; 0.00001 μM, listed as S-Calpepin, 10 pM", "value": "5.52% and 8.92%"},
      {"measurement": "CPE inhibition (%)", "setting": "SARS-CoV-2 [1]; 0.0001 μM, listed as S-Calpepin", "value": "7.19% and 6.77%"},
      {"measurement": "CPE inhibition (%)", "setting": "SARS-CoV-2 [1]; 0.001 μM, listed as S-Calpepin", "value": "23.15% and 18.35%"},
      {"measurement": "CPE inhibition (%)", "setting": "SARS-CoV-2 [1]; 0.01 μM, listed as S-Calpepin", "value": "22.53% and 19.69%"},
      {"measurement": "CPE inhibition (%)", "setting": "SARS-CoV-2 [1]; 0.1 μM, listed as S-Calpepin", "value": "56.52% and 41.43%"},
      {"measurement": "CPE inhibition (%)", "setting": "SARS-CoV-2 [1]; 1 μM, listed as S-Calpepin", "value": "87.89% and 72.23%"},
      {"measurement": "CPE inhibition (%)", "setting": "SARS-CoV-2 [1]; 10 μM, listed as S-Calpepin", "value": "85.17% and 78.3%"},
      {"measurement": "Residual activity (Vi/V0)", "setting": "CatL; inhibitor 0.010 nM, 10 pM", "value": "1.426 and 1.05 and 1.025 and 1.009 and 1.011 and 1.078 and 1.028 and 1.031 and 1.036 and 1.201"},
      {"measurement": "Residual activity (Vi/V0)", "setting": "CatL; inhibitor 0.018 nM, 18 pM", "value": "1.349 and 1.024 and 1.036 and 0.8728 and 0.9988 and 0.9818 (2×) and 1.042 and 1.062 and 1.149"},
      {"measurement": "Residual activity (Vi/V0)", "setting": "CatL; inhibitor 0.032 nM, 32 pM", "value": "1.453 and 0.9142 and 1.1 and 1.088 and 1.079 and 0.9024 and 0.9567 and 1.006 and 0.9803 and 1.2694"},
      {"measurement": "Residual activity (Vi/V0)", "setting": "CatL; inhibitor 0.058 nM, 58 pM", "value": "1.377 and 1.0256 and 0.8968 and 0.9231 and 0.8862 and 0.9577 and 1.001 and 1.006 and 1.052 and 1.254"},
      {"measurement": "Residual activity (Vi/V0)", "setting": "CatL; inhibitor 0.105 nM, 0.000105 µM", "value": "1.053 and 0.914 and 0.68 and 0.6925 and 0.711 and 0.8569 and 0.909 and 1.0072 and 0.8377 and 1.071"},
      {"measurement": "Residual activity (Vi/V0)", "setting": "CatL; inhibitor 0.189 nM, 0.000189 µM", "value": "0.9886 and 0.7158 and 0.5095 and 0.5746 and 0.5088 and 0.7745 and 0.7818 and 0.8193 and 0.7501 and 1.054"},
      {"measurement": "Residual activity (Vi/V0)", "setting": "CatL; inhibitor 0.340 nM, 0.00034 µM", "value": "0.5984 and 0.5107 and 0.3117 and 0.3431 and 0.2757 and 0.5388 and 0.5659 and 0.5589 and 0.4129 and 0.6122"},
      {"measurement": "Residual activity (Vi/V0)", "setting": "CatL; inhibitor 0.612 nM, 0.000612 µM", "value": "0.6669 and 0.3311 and 0.2683 and 0.3139 and 0.2767 and 0.6359 and 0.6301 and 0.62 and 0.515 and 0.8313"},
      {"measurement": "Residual activity (Vi/V0)", "setting": "CatL; inhibitor 1.103 nM, 0.001103 µM", "value": "0.5114 and 0.2133 and 0.2013 and 0.1965 and 0.1624 and 0.4143 and 0.3924 and 0.3311 and 0.3975 and 0.5758"},
      {"measurement": "Residual activity (Vi/V0)", "setting": "CatL; inhibitor 1.985 nM, 0.001985 µM", "value": "0.3099 and 0.145 and 0.1192 and 0.1108 and 0.1144 and 0.3088 and 0.318 and 0.3267 and 0.2219 and 0.2968"},
      {"measurement": "Ki", "setting": "CatL; mean with standard deviation and 95% confidence interval, pH 5.5, 37 °C", "value": 0.148, "unit": "nM"},
      {"measurement": "Viral titer (% control)", "setting": "SARS-CoV-2 [2]; 0.0781 μM", "value": 100, "unit": "% control"},
      {"measurement": "Viral titer (% control)", "setting": "SARS-CoV-2 [2]; 0.1563 μM", "value": 100, "unit": "% control"},
      {"measurement": "Viral titer (% control)", "setting": "SARS-CoV-2 [2]; 0.3125 μM", "value": 100, "unit": "% control"},
      {"measurement": "Viral titer (% control)", "setting": "SARS-CoV-2 [2]; 0.625 μM, listed as S-Calpepin", "value": "65 % control and 61.77 % control"},
      {"measurement": "Viral titer (% control)", "setting": "SARS-CoV-2 [2]; 1.25 μM, listed as S-Calpepin", "value": "24 % control and 43.33 % control"},
      {"measurement": "Viral titer (% control)", "setting": "SARS-CoV-2 [2]; 2.5 μM, listed as S-Calpepin", "value": "24.98 % control and 48.08 % control"},
      {"measurement": "Viral titer (% control)", "setting": "SARS-CoV-2 [2]; 5 μM", "value": 27.38, "unit": "% control"},
      {"measurement": "EC50", "setting": "SARS-CoV-2 [2]; VERO-CCL81, RT-qPCR, 48 h post-infection, read-out: Viral titer EC50", "value": 700, "unit": "nM"},
      {"measurement": "Ki", "setting": "SARS-CoV-2 M^pro", "value": 4700, "unit": "nM"}
    ]}
  ]
}
